Measurements: ChEMBL document CHEMBL2010715, “Verrulactones A and B, new inhibitors of Staphylococcus aureus enoyl-ACP reductase produced by Penicillium verruculosum F375” (Bioorg Med Chem Lett, 2012)
≈ marks a conversion by molar mass, not a printed value. Calls of active or inactive are those of the source. No cut-off for these calls is given here.

Assays:
[1] = system: Bacillus cereus; assay: Antibacterial activity against Bacillus cereus KCTC 1661; type: functional
[2] = (§1) Inhibition of Staphylococcus aureus Fab1
[3] = system: Staphylococcus aureus; assay: as §1
[4] = system: Escherichia coli; assay: Antibacterial activity against Escherichia coli KCTC 1683; type: functional, organism-based
[5] = system: Staphylococcus aureus; assay: Antibacterial activity against Staphylococcus aureus RN4220; type: functional
[6] = system: Pseudomonas aeruginosa; assay: Antibacterial activity against Pseudomonas aeruginosa KCTC 2004; type: functional, organism-based
[7] = system: Staphylococcus aureus; assay: Antibacterial activity against methicillin-resistant Staphylococcus aureus CCARM 3167; type: functional

SMILES	MIC [1] [µg/mL]	IC50 [2] [µM]	inhibition [3]	Activity [4]	MIC [5] [µg/mL]	Activity [6]	MIC [7] [µg/mL]
COc1cc(O)c2c(=O)oc3cc(O)c(O)c(-c4c(O)c(O)cc5oc(=O)c6c(O)cc(OC)cc6c45)c3c2c1 [VERRULACTONE A]	8 (≈ 14.6 µM)	0.92	Dose-dependent effect	inactive	8 (≈ 14.6 µM)	inactive	8 (≈ 14.6 µM)
COc1cc(O)c2c(=O)oc3c(-c4c(O)c(O)cc5oc(=O)c6c(O)cc(OC)cc6c45)c(O)c(O)cc3c2c1 [VERRULACTONE B]		1.41			16 (≈ 29.3 µM)		16 (≈ 29.3 µM)
